Assay results reported in ChEMBL document CHEMBL5647692, “The novel dual PI3K/mTOR inhibitor NVP-BGT226 displays cytotoxic activity in both normoxic and hypoxic hepatocarcinoma cells” (Oncotarget, 2015).
Active and inactive are the calls of the source. No cut-off for these calls is given here.

Assays:
SNU-449 [1] = assay: Cytotoxicity against human SNU-449 cells assessed as reduction in cell viability incubated for 48 hrs by MTT assay; format: functional, cell-based; settings: SNU-449, 48 h
HepG2 = assay: Cytotoxicity against human HepG2 cells assessed as reduction in cell viability incubated for 48 hrs by MTT assay; format: functional, cell-based; settings: HepG2, 48 h
Hep 3B2 [2] = assay: Cytotoxicity against human Hep3B cells assessed as reduction in cell viability incubated for 48 hrs by MTT assay; format: functional, cell-based
Mahlavu [3] = assay: Induction of cell cycle arrest in human Mahlavu cells assessed as increase in accumulation of cells in G0/G1 phase incubated at 0.01 to 0.1 uM for 24 hrs by propidium iodide staining based muse cell analysis; format: functional; settings: dose 0.01-0.1 µM
Hep 3B2 [4] = assay: Induction of cell cycle arrest in human Hep3B cells assessed as decrease in accumulation of cells in S phase incubated at 0.01 to 0.1 uM for 24 hrs by propidium iodide staining based muse cell analysis; format: functional; settings: dose 0.01-0.1 µM
Mahlavu [5] = assay: Induction of cell cycle arrest in human Mahlavu cells assessed as decrease in accumulation of cells in G2/M phase incubated at 0.01 to 0.1 uM for 24 hrs by propidium iodide staining based muse cell analysis; format: functional; settings: dose 0.01-0.1 µM
Hep 3B2 [6] = assay: Induction of cell cycle arrest in human Hep3B cells assessed as decrease in accumulation of cells in G2/M phase incubated at 0.01 to 0.1 uM for 24 hrs by propidium iodide staining based muse cell analysis; format: functional; settings: dose 0.01-0.1 µM
Mahlavu [7] = assay: Induction of apoptosis in human Mahlavu cells assessed as cleaved Caspase 9 level at 0.5 uM incubated for 24 hrs by Western blotting analysis; format: functional, cell-based
Mahlavu [8] = assay: Induction of apoptosis in human Mahlavu cells assessed as cleaved Caspase 7 level at 0.5 uM incubated for 24 hrs by Western blotting analysis; format: functional, cell-based
Hep 3B2 [9] = assay: Induction of apoptosis in human Hep3B cells assessed as cleaved PARP level at 0.5 uM incubated for 24 hrs by Western blotting analysis; format: functional, cell-based
SNU-475 [10] = assay: Induction of apoptosis in human SNU-475 cells incubated for 24 hrs by Annexin-V/7-AAD staining based muse cell analyzer method; format: functional; settings: dose 0.01-0.5 µM
Mahlavu [11] = assay: Induction of apoptosis in human Mahlavu cells assessed as viable cells at 0.66 uM incubated for 24 hrs by Annexin-V/7-AAD staining based muse cell analyzer method (reference value: 90.52 %); format: functional; settings: read-out: Activity
Mahlavu [12] = assay: Induction of apoptosis in human Mahlavu cells assessed as early apoptotic cells at 0.66 uM incubated for 24 hrs by Annexin-V/7-AAD staining based muse cell analyzer method (reference value: 6.57 %); format: functional
Mahlavu [13] = assay: Induction of apoptosis in human Mahlavu cells assessed as viable cells at IC50 incubated for 24 hrs in presence of Z-VAD-fmk by Annexin-V/7-AAD staining based muse cell analyzer method (reference value: 90.52 %); format: functional
Mahlavu [14] = assay: Induction of apoptosis in human Mahlavu cells assessed as early apoptotic cells at IC50 incubated for 24 hrs in presence of Z-VAD-fmk by Annexin-V/7-AAD staining based muse cell analyzer method (reference value: 6.57 %); format: functional
SNU-449 [15] = assay: Induction of apoptosis in human SNU-449 cells assessed as necrotic cells at 1.5 uM incubated for 24 hrs by Annexin-V/7-AAD staining based muse cell analyzer method (reference value: 0.95 %); format: functional
SNU-449 [16] = assay: Induction of apoptosis in human SNU-449 cells assessed as viable cells at IC50 concentration incubated for 24 hrs in presence of Z-VAD-fmk by Annexin-V/7-AAD staining based muse cell analyzer method (reference value: 90.07 %); format: functional
SNU-449 [17] = assay: Induction of apoptosis in human SNU-449 cells assessed as early apoptotic cells at IC50 concentration incubated for 24 hrs in presence of Z-VAD-fmk by Annexin-V/7-AAD staining based muse cell analyzer method (reference value: 3.95 %); format: functional
Mahlavu [18] = assay: Induction of autophagy in human Mahlavu cells assessed as upregulation of LC3A/B II level by Western blot analysis; format: functional, cell-based; settings: dose 0.1-0.5 µM
SNU-475 [19] = assay: Induction of autophagy in human SNU-475 cells assessed as upregulation of LC3A/B II level by Western blot analysis; format: functional, cell-based; settings: dose 0.1-0.5 µM
Mahlavu [20] = assay: Induction of autophagy in human Mahlavu cells assessed as increase in lipidation of LC3A/B II level at 0.5 uM incubated for 24 hrs in presence of chloroquine by Western blot analysis; format: functional, cell-based
SNU-475 [21] = assay: Induction of autophagy in human SNU-475 cells assessed as reduction in cytotoxicity at 0.5 uM incubated for 24 hrs by MTT assay; format: functional, cell-based
SNU-475 [22] = assay: Cytotoxicity against human SNU-475 cells assessed as reduction in cell viability at 0.5 uM incubated for 24 hrs in presence of chloroquine by MTT assay; format: functional, cell-based
SNU-475 [23] = assay: Cytotoxicity against human SNU-475 cells assessed as reduction in cell viability at 0.5 uM incubated for 24 hrs in presence of 3-Methyladenine by MTT assay; format: functional, cell-based
Hep 3B2 [24] = assay: Cytotoxicity against human Hep3B cells assessed as reduction in cell viability at 0.5 uM incubated for 24 hrs in presence of 3-Methyladenine by MTT assay; format: functional, cell-based
[25] = Inhibition of PI3K/Akt/mTOR signaling pathway in human SNU-475 cells assessed as reduction in phosphorylation of Akt incubated for 1 hr under normoxia condition by Western blotting analysis; format: cell-based; settings: dose 0.25-1 µM
[26] = Inhibition of PI3K/Akt/mTOR signaling pathway in human SNU-475 cells assessed as reduction in phosphorylation of GSK3 alpha/beta incubated for 1 hr under normoxia condition by Western blotting analysis; format: cell-based; settings: dose 0.25-1 µM
[27] = Inhibition of PI3K/Akt/mTOR signaling pathway in human HepG2 cells assessed as reduction in phosphorylation of mTORC1 substrate S6 incubated for 1 hr under normoxia condition by Western blotting analysis; format: cell-based; settings: dose 0.25-1 µM
[28] = Inhibition of PI3K/Akt/mTOR signaling pathway in human SNU-449 cells assessed as reduction in phosphorylation of mTORC1/2 incubated for 1 hr under normoxia condition by Western blotting analysis; format: cell-based; settings: dose 0.25-1 µM
[29] = Inhibition of PI3K/Akt/mTOR signaling pathway in human SNU-475 cells assessed as reduction in phosphorylation of Akt at 1 to 10 nM incubated for 1 hr under normoxia condition by Western blotting analysis; format: cell-based; settings: dose 1-10 nM
SNU-449 [30] = assay: Cytotoxicity against human SNU-449 cells assessed as reduction in cell viability incubated for 24 hrs under normoxia condition by MTT assay; format: functional, cell-based
Hep 3B2 [31] = assay: Cytotoxicity against human Hep3B cells assessed as reduction in cell viability incubated for 24 hrs under normoxia condition by MTT assay; format: functional, cell-based
SNU-475 [32] = assay: Induction of autophagy in human SNU-475 cells assessed as decreased expression of SQSTM1/p62 level incubated for 24 hrs under hypoxia condition by Western blot analysis; format: functional, cell-based; settings: dose 0.1-0.5 µM
Hep 3B2 [33] = assay: Cytotoxicity against human Hep3B cells assessed as reduction in cell viability at 0.5 uM incubated for 24 hrs in presence of 3-Methyladenine under hypoxia condition by MTT assay; format: functional, cell-based
[34] = molecular target: Hypoxia-inducible factor 1-alpha (Homo sapiens) (UniProt Q16665); assay: Inhibition of HIF-1alpha in human Mahlavu cells incubated for 6 hrs under hypoxia condition by Western blot analysis; format: cell-based; settings: dose 0.01-0.1 µM
Chain of Hypoxia-inducible factor 1-alpha (Homo sapiens) (Q16665 whole entry, looked up): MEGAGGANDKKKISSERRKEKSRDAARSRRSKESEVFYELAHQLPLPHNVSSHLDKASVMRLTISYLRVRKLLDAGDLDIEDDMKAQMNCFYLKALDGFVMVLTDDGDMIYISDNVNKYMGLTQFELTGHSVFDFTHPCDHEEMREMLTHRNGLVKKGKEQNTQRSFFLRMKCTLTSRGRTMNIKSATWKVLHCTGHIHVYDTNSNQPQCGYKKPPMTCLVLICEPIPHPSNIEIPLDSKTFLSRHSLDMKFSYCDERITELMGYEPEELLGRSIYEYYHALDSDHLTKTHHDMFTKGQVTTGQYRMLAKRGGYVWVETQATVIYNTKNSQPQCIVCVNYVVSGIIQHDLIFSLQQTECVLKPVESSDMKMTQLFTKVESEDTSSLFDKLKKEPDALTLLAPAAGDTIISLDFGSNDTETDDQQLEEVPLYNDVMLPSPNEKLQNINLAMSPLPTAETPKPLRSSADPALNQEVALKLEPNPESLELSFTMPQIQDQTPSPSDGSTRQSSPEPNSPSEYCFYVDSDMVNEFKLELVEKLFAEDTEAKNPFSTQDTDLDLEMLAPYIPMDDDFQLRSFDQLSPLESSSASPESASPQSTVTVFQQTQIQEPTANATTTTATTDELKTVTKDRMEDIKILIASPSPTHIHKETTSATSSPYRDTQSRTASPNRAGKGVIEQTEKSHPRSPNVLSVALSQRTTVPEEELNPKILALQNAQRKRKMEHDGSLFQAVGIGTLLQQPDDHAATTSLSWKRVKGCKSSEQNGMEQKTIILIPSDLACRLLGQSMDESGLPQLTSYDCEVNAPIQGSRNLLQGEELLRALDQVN

## COc1ccc(-c2ccc3ncc4c(c3c2)n(-c2ccc(N3CCNCC3)c(C(F)(F)F)c2)c(=O)n4C)cn1 [BGT-226 FREE BASE]
SNU-449 [1]
  IC50: 510 nM
HepG2
  IC50: 1350 nM
Hep 3B2 [2]
  IC50: 1220 nM
Mahlavu [3]
  Activity: Active
Hep 3B2 [4]
  Activity: Active
Mahlavu [5]
  Activity: Active
Hep 3B2 [6]
  Activity: Active
Mahlavu [7]
  Activity: Active
Mahlavu [8]
  Activity: Active
Hep 3B2 [9]
  Activity: Active
SNU-475 [10]
  Activity: Dose-Dependent Effect
Mahlavu [11]
  viability at 0.66 µM: 50.8%
Mahlavu [12]
  Activity: 47.22%
Mahlavu [13]
  Activity: 81.63%
Mahlavu [14]
  Activity: 11.97%
SNU-449 [15]
  Activity: 1.02%
SNU-449 [16]
  Activity: 83.56%
SNU-449 [17]
  Activity: 11.94%
Mahlavu [18]
  Activity: Dose-Dependent Effect
SNU-475 [19]
  Activity: Dose-Dependent Effect
Mahlavu [20]
  Activity: Active
SNU-475 [21]
  Activity: Active
SNU-475 [22]
  Activity: Active
SNU-475 [23]
  Activity: Active
Hep 3B2 [24]
  Activity: Active
[25]
  inhibition: Dose-Dependent Effect
[26]
  inhibition: Dose-Dependent Effect
[27]
  inhibition: Dose-Dependent Effect
[28]
  inhibition: Dose-Dependent Effect
[29]
  inhibition: Active
SNU-449 [30]
  Activity: Active
Hep 3B2 [31]
  Activity: Active
SNU-475 [32]
  Activity: Dose-Dependent Effect
Hep 3B2 [33]
  Activity: Active
[34]
  inhibition: Dose-Dependent Effect
